Consider 5 compounds from patent publication US20230000865A1, “PHARMACEUTICAL COMPOSITION FOR THE TREATMENT OF PULMONARY VASCULAR DISEASE AND/OR CARDIAC DYSFUNCTION IN FONTAN-PALLIATED PATIENTS” (ACTELION PHARMACEUTICALS LTD, priority 2019, published 2023).

A value given as a limit tells only on which side of the number the result lay.

One data set concerns the target T1, BCRP transporters (Homo sapiens, UniProt Q9UNQ0).
T1 construct: from tissue; host or cells: in vivo: gut, liver canalicular membrane, kidney
T1 sequence (Q9UNQ0 1-655): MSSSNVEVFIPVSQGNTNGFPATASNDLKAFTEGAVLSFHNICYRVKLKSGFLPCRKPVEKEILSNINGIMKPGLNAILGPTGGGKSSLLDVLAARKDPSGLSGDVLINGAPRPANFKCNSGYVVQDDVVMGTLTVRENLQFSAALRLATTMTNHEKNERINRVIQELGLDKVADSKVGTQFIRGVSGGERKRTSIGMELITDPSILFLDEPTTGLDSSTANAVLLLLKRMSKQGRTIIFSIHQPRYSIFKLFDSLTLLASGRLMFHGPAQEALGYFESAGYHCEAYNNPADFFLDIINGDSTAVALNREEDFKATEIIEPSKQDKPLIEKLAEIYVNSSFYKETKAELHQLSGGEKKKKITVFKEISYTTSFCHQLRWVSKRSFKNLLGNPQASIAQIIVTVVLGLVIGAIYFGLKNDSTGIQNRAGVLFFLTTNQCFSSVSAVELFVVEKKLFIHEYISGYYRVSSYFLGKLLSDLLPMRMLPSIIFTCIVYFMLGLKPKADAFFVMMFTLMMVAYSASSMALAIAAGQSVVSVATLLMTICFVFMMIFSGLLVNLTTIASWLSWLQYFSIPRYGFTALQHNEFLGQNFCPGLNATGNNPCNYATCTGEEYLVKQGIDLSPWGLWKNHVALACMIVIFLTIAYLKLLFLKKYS
The data set is described as follows: Drug-drug interaction, pharmacokinetics of rosuvastatin. The data set is classed as in vivo. To be noted: for Drug-Drug Interaction observed: in vivo. The source says:
BCRP is an efflux pump located in the gut, liver canalicular membrane, and kidney, and is exposed to intracellular drug concentrations in the liver and the kidney.

A further data set deals with T2, human PXR (Homo sapiens, UniProt O75469).
T2 sequence (O75469 1-434): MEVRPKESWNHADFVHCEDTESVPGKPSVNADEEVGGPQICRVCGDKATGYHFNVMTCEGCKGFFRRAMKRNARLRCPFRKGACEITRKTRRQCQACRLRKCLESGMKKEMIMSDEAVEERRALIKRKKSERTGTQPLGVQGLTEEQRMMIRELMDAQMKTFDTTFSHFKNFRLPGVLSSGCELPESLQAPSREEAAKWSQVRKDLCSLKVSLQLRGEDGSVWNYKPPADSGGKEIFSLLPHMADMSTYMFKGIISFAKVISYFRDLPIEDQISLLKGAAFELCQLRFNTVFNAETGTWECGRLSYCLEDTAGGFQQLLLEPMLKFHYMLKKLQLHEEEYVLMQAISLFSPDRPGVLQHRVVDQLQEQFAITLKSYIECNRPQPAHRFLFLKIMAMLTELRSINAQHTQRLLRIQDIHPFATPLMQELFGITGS
The data set is described as follows: Activation of human PXR. The data set is classed as cell-based. The source says: In human hepatocytes, both compounds elicited concentration-dependent increases in CYP3A4 mRNA and enzyme activity.

For data set [1] the following is noted: cited from earlier work.
The subject of another data set is ET receptors. The conditions noted are these: cited from earlier work.
The conditions of data set [2]: patients with PAH; cited from earlier work.
For data set [3] the following is noted: long-term treatment, patient with plastic bronchitis following Fontan; cited from earlier work.
For data set [4] the following is noted: early postoperative phase; cited from earlier work.
Data set [5] can be described thus: Example 1: dose-response (Emax) analysis of hemoglobin change, pooled Phase I studies in healthy volunteers. The data set is classed as in vivo, human. The source says:
Hemoglobin measurements were pooled from 3 Phase I clinical studies in healthy volunteers: • Study AC-055-102: Investigation of the PK, PD, safety and tolerability of macitentan in male subjects (the study protocol is described in the following publication: Sidharta et al., Safety, tolerability, pharmacokinetics, and pharmacodynamics of macitentan, an endothelin receptor antagonist, in an ascending multiple-dose study in healthy subjects. J. Clin. Pharmacol. (2013), 53(11), 1131-1138) • Study AC-055-116: Investigation of the PK, PD, safety and tolerability of macitentan in male Japanese subjects (the study protocol is described in the following publication: Yokoyama et al., Tolerability, Safety, Pharmacokinetics, and Pharmacodynamics of Macitentan, a New Endothelin Receptor Antagonist, in Healthy Japanese Male Subjects. Rinsho yakuri/Japanese Journal of Clinical Pharmacology and Therapeutics (2016), 47, 143-150) • Study AC-055-117: Investigation of the PK, PD, safety and tolerability of macitentan in male Korean subjects (the study protocol is described in the following publication: Ahn et al., Pharmacokinetic-pharmacodynamic relationships of macitentan, a new endothelin receptor antagonist, after multiple dosing in healthy Korean subjects, Am. […]
Hemoglobin concentrations measured in the morning of Day 11 of macitentan treatment and at baseline on Day −1 were used in the analysis. […]

The nature of data set [6]: Example 2: Phase 1 safety study of 75 mg qd macitentan in healthy male subjects, with and without up-titration. The data set is classed as in vivo, human. The protocol: This is a single-sequence, open-label, single-center, Phase 1 study in healthy male subjects. The study assessed the effect of 75 mg qd administration of macitentan. The study includes a screening phase of 21 days before the first macitentan administration, followed by an open-label treatment phase. Randomization was not used and subjects received the same treatment.
29 subjects were enrolled.
Administration of 75 mg qd macitentan started on Day 1. Macitentan was administered every day in the morning between 8:00 and 11:00 with 240 mL of noncarbonated water. One 75-mg macitentan film-coated tablet was thus administered as multiple qd oral doses under fed conditions.
Subjects were planned to take macitentan 75 mg for 15 days. However the study was interrupted on the morning of day 8, i.e. when subjects had received 7 doses of macitentan 75 mg.
Macitentan was administered in an up-titration regimen in the morning between 8:00 and 11:00 with 240 mL of noncarbonated water. One macitentan film-coated tablet (10 mg, 37.5 mg or 75 mg) was administered as multiple qd oral doses under fed conditions on Days 1-9 and Days 11-12, and under fasted conditions on Days 10 and 13. The up-titration regimen consists of 2 qd doses of 10 mg macitentan and 3 qd doses of 37.5 mg macitentan followed by 8 qd doses of 75 mg macitentan. On Days −4, −3, 10 and 13 (i.e., the days when dosing occurred under fasted conditions), no fluid intake apart from the water taken at the time of macitentan administration was allowed from 1 hour before until 1 hour after administration of macitentan.
All reported AEs with onset during the treatment phase were included in the analysis. The effects on cardiovascular variables were evaluated and the following variables were collected: PR (ms), QRS (ms), QT (ms), QTcB (ms), QTcF (ms), heart rate (bpm), and RR. The normal range for vital signs is defined as follows: • Systolic blood pressure: 100-140 mmHg • Diastolic blood pressure: 60-90 mmHg • Pulse rate: 45-90 bpm • Respiratory rate: 8-20 per minute • Body temperature: 35.0° C. to 37.5° C.
An AE is any untoward medical occurrence, i.e., any unfavorable and unintended sign (including an abnormal finding), symptom, or disease temporally associated with the use of macitentan. A treatment-emergent AE is any occurrence that is new in onset or aggravated in severity from the baseline condition. The following are used to assess all AEs: • Related: There is a reasonable causal relationship between macitentan administration and the AE. • Not Related: There is not a reasonable causal relationship between macitentan administration and the AE.
An assessment of AE severity grade was made using the following general categorical descriptors: • Mild: Awareness of symptoms that are easily tolerated, causing minimal discomfort and not interfering with everyday activities. • Moderate: Sufficient discomfort is present to cause interference with normal activity. • Severe: Extreme distress, causing significant impairment of functioning or incapacitation. Prevents normal everyday activities.

On the set-up of data set [7]: key to Frequency observed with macitentan 10 mg: Photophobia: Very common: very common (≥1/10); Common: common (≥1/100 to <1/10); Uncommon: uncommon (≥1/1,000 to <1/100); rare (≥1/10,000 to <1/1,000); very rare (<1/10,000); Not known: not known (cannot be estimated from the available data). The conditions noted are these: cited from earlier work.
The conditions of data set [8]: preoperative Fontan candidates with mild pulmonary hypertension; cited from earlier work.
Where [9] appears, read: 75 mg qd without up-titration, 6 subjects.
[10] abbreviates: 75 mg qd, healthy male subjects.
[11] abbreviates: up-titration 10/37.5/75 mg qd, 6 subjects.

A word on the EC50: it is the midpoint of the concentration-response curve. Turning to `NS(=O)(=O)Nc1ncnc(OCCOc2ncc(Br)cn2)c1-c1ccc(Br)cc1` [ACT-132577], the “Drug-Drug Interaction observed” value at BCRP transporters is “No Drug-Drug Interaction”. On human PXR, this compound returned an EC50 of 7.2 to 8.7 µM. Moreover, in data set [1] (in humans), the half-life entry is reported as “approximately 48 hours”. For the same compound, in data set [1] (in vivo), the “plasma concentrations compared with macitentan” value is listed as “higher plasma concentrations than macitentan”. For the same compound, in [1] (metabolite after macitentan administration), the “time of peak plasma concentration after the first dose” value is on record as “about 30 hours”. Moreover, the “affinity for the ET receptors compared with parent compound” value with ET receptors is reported as “lower affinity”.

Regarding `COc1ccccc1Oc1c(NS(=O)(=O)c2ccc(C(C)(C)C)cc2)nc(-c2ncccn2)nc1OCCO` [bosentan], the “exercise capacity, functional class, health-related quality of life and haemodynamic parameters (including PVR and PAP)” value in data set [2] is “improve”. The “symptoms, aortic oxygen saturation, functional class, exercise capacity, Borg dyspnoea index, mean PAP, pulmonary blood flow and PVR” value in data set [3] is “improved”.

On to `CCCCC[C@H](O)/C=C/[C@@H]1[C@H]2C/C(=C/CCCC(=O)O)O[C@H]2C[C@H]1O` [epoprostenol], for which, in [4], the “rebound effect after inhaled nitric oxide (NO) cessation” value is reported as “prevent the rebound effect”.

Turning to `CCCNS(=O)(=O)Nc1ncnc(OCCOc2ncc(Br)cn2)c1-c1ccc(Br)cc1` [macitentan, propylsulfamic acid [5-(4-bromo-phenyl)-6-[2-(5-bromo-pyrimidin-2-yloxy)-ethoxy]-pyrimidin-4-yl]-amide], the “Drug-Drug Interaction observed” value at BCRP transporters is recorded as “No Drug-Drug Interaction”. In addition, at BCRP transporters (macitentan 10 mg per day o.d.), the “effect on the pharmacokinetics of 1 mg rosuvastatin” value is on record as “has not shown any effect”. The same compound came in with an EC50 on human PXR of 1.1 to 1.2 µM. The “maximum effect on hemoglobin decrease (Emax)” value in data set [5] (Day 11 vs baseline Day -1, nonlinear regression) is given as “around 1.23 g/dL”. The “dose at which the effect on hemoglobin decrease plateaus” value in data set [5] (FIG. 1) is listed as 10 mg. In data set [6] (setting [9]), the “N with Flushing/feeling of warmth/redness of face and/or hands (No titration)” value is 4, the “N with Headache (No titration)” value was 6, the “N with Photophobia (No titration)” value was 3 and the “N with Sinusitis/rhinitis/nasal congestion (No titration)” value was 5. For the same compound, in data set [6] (setting [9]), the “Severity of AEs (No titration): Photophobia” value is reported as “All mild” and the “Severity of AEs (No titration): Sinusitis/rhinitis/nasal congestion” value is reported as “All mild”. In [6] (setting [10]), the “overall severity of AEs” value was “mainly mild”; the reduction in hemoglobin is no more than 2 g/dL; the “study day from which AEs were reported” value was no less than 2 days; the “vital signs, ECG and lab parameters” value is recorded as “no clinically significant changes”. Further, in data set [6] (Four days after stopping macitentan), the “resolution of AEs” value is listed as “most of the AEs resolved”. Moreover, in data set [6] (setting [11]), the “Duration of AE (With titration): Sinusitis/rhinitis/nasal congestion” value is less than 24 h, the “N with Flushing/feeling of warmth/redness of face and/or hands (With titration)” value is reported as 0, the “N with Headache (With titration)” value was 6 and the “N with Photophobia (With titration)” value was 0. In data set [6] (setting [11]), the “N with Sinusitis/rhinitis/nasal congestion (With titration)” value is recorded as 1 and the “Severity of AEs (With titration): Sinusitis/rhinitis/nasal congestion” value is on record as “Mild, less than”. The completion of treatment entry in [6] (up-titration regimen cohort) was “All subjects completed treatment”. For the same compound, the “tolerability of 75 mg macitentan with up-titration regimen” value in data set [6] (up-titration vs no up-titration) was “improved tolerability”. The “steady state is reached” value in data set [1] (in humans, day of administration) was “by the third day”. Further, the half-life entry in [1] (in humans) is “about 16 hours”. The “absorption into the plasma” value in [1] (in vivo) is given as “absorbed slowly”. Further, in data set [7], the “Frequency observed with macitentan 10 mg: Flushing/feeling of warmth/redness of face and/or hands” value is reported as “Uncommon (uncommon (≥1/1,000 to <1/100))”, the “Frequency observed with macitentan 10 mg: Headache” value is reported as “Very common (very common (≥1/10))”, the “Frequency observed with macitentan 10 mg: Photophobia” value is “Not known” and the “Frequency observed with macitentan 10 mg: Sinusitis/rhinitis/nasal congestion” value is reported as “Common (common (≥1/100 to <1/10))”.

For `CC#CCC(C)[C@H](O)/C=C/[C@@H]1[C@H]2c3cccc(CCCC(=O)O)c3O[C@H]2C[C@H]1O` (mixture of isomers) [beraprost], in data set [8], the “effect on mean pulmonary artery pressure (PAP) and PVR” value is recorded as “reduces”.
